Source: ChEMBL document CHEMBL1250444, “Nitric oxide activates TRP channels by cysteine S-nitrosylation” (Nat Chem Biol, 2006)
Numbering of substitutions follows the chain as printed. Active and inactive are the calls of the source.

Assays:
Format in all cases: cell-based
[1] = molecular target: T1, Short transient receptor potential channel 5 (Homo sapiens) (UniProt Q9UL62); assay: Induction of TRPC5 S-nitrosylation in chicken DT40 cells assessed as increase in Ca2+ level from extracellular space at 30 uM in presence of PLC-beta inhibitor U73122
T1 sequence (whole entry): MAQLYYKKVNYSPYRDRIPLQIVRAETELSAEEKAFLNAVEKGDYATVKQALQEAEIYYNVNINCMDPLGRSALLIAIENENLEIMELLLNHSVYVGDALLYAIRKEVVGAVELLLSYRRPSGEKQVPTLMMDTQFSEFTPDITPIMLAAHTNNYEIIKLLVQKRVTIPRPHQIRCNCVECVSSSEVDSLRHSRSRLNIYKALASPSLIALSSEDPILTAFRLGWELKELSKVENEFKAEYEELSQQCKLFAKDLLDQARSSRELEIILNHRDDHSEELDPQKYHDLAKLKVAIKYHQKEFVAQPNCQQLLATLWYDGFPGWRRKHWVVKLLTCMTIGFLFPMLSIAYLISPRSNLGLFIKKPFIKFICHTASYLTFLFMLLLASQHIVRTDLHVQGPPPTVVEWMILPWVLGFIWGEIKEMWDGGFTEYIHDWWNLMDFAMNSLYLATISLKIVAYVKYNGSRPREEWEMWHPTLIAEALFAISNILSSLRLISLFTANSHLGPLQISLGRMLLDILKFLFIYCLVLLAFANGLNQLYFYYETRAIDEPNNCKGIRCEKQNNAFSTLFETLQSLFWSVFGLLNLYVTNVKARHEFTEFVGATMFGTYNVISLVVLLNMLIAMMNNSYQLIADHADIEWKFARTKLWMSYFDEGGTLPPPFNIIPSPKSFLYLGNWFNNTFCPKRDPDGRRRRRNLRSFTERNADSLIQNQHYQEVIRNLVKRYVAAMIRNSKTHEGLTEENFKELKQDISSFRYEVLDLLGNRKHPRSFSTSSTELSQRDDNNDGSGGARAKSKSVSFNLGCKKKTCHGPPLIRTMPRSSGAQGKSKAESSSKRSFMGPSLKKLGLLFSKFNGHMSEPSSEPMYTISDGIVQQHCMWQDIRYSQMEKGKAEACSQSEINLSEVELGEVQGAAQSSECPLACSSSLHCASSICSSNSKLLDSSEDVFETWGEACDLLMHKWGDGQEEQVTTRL

[2] = test system: T2, Short transient receptor potential channel 5 (Homo sapiens), Q9UL62 [C553S]; assay: Decrease in TRPC5 C553S mutant S-nitrosylation in HEK cells assessed as inhibition of incorporation of DTNB-2Bio at 30 uM relative to control; conditions: HEK293
T2 sequence (whole entry): T1 sequence (whole entry) with C553S

[3] = test system: T3, Short transient receptor potential channel 5 (Homo sapiens), Q9UL62 [C558S]; assay: Decrease in TRPC5 C558S mutant S-nitrosylation in HEK cells assessed as inhibition of incorporation of DTNB-2Bio at 30 uM relative to control; conditions: HEK293
T3 sequence (whole entry): T1 sequence (whole entry) with C558S

Measured: Activity

O=[N+]([O-])c1ccc(SSc2ccc([N+](=O)[O-])cn2)nc1
active: all assays above
